# According to PubChem BioAssay AID2060611 (Molecular Pharmacology Branch, DTP, NCI, 2025):
# Values joined by “and” are separate entries in the source; they are usually repeats but may differ in a detail not shown here. Identical values can stand only once.
# System: 628569-122-R-J1-PDC complex spheroid viability
# Assay: Anticancer human tumor 628569-122-R-J1-PDC patient-derived head and neck squamous carcinoma cell line growth inhibition [CLK]
# Settings: for viability, T/C: stronger effect = lower value
# Summary of the method: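 Multi-cell-type spheroids combined patient-derived tumor cells with HUVEC endothelial cells and human mesenchymal stem cells. Paired agents were dosed in half-log steps down from about clinical Cmax, or from 10 microM where Cmax was unknown.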
# 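Further: spheroids exposed to agents for seven days before readout.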
# 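Wherever viability, T/C is given: 100% = DMSO vehicle control viability.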
structure (smiles),measurement,setting,value
COc1cccc2c1C(=O)c1c(O)c3c(c(O)c1C2=O)CC(O)(C(=O)CO)CC3OC1CC(N)C(O)C(C)O1 (stereo not drawn) + CNC(=O)c1ccc(Nc2nc(OC3CCCC3)c3c(-c4ccc5nc(C)oc5c4)c[nH]c3n2)c(OC)c1,IC50,"curve of first compound, second compound 0.0316 µM",479 nM
same,IC50,"curve of first compound, second compound 0.1 µM",446 nM
same,IC50,"curve of first compound, second compound 0.316 µM",373 nM
same,IC50,"curve of first compound, second compound 1 µM",31.6 nM
same,IC50,"curve of first compound, second compound 3.16 µM",< 31.6 nM
same,IC50,"curve of first compound, second compound 10 µM",< 31.6 nM
same,"viability, T/C","second compound 0.0316 µM, first compound 0.0316 µM",65.1%
same,"viability, T/C","second compound 0.0316 µM, first compound 0.1 µM",56.3%
same,"viability, T/C","second compound 0.0316 µM, first compound 0.316 µM",88.3%
same,"viability, T/C","second compound 0.0316 µM, first compound 1 µM",12.9%
same,"viability, T/C","second compound 0.0316 µM, first compound 3.16 µM",19.5%
same,"viability, T/C","second compound 0.0316 µM, first compound 10 µM",11.4%
same,"viability, T/C","second compound 0.1 µM, first compound 0.0316 µM",49.7%
same,"viability, T/C","second compound 0.1 µM, first compound 0.1 µM",62.8%
same,"viability, T/C","second compound 0.1 µM, first compound 0.316 µM",91.8%
same,"viability, T/C","second compound 0.1 µM, first compound 1 µM",5.99%
same,"viability, T/C","second compound 0.1 µM, first compound 3.16 µM",11.4%
same,"viability, T/C","second compound 0.1 µM, first compound 10 µM",5.02%
same,"viability, T/C","second compound 0.316 µM, first compound 0.0316 µM",47%
same,"viability, T/C","second compound 0.316 µM, first compound 0.1 µM",47.1%
same,"viability, T/C","second compound 0.316 µM, first compound 0.316 µM",75.8%
same,"viability, T/C","second compound 0.316 µM, first compound 1 µM",9.78%
same,"viability, T/C","second compound 0.316 µM, first compound 3.16 µM",17.6%
same,"viability, T/C","second compound 0.316 µM, first compound 10 µM",4.53%
same,"viability, T/C","second compound 1 µM, first compound 0.0316 µM",39.9%
same,"viability, T/C","second compound 1 µM, first compound 0.1 µM",47.9%
same,"viability, T/C","second compound 1 µM, first compound 0.316 µM",58.3%
same,"viability, T/C","second compound 1 µM, first compound 1 µM",7.25%
same,"viability, T/C","second compound 1 µM, first compound 3.16 µM",14.1%
same,"viability, T/C","second compound 1 µM, first compound 10 µM",5.15%
same,"viability, T/C","second compound 3.16 µM, first compound 0.0316 µM",43.2%
same,"viability, T/C","second compound 3.16 µM, first compound 0.1 µM",52.5%
same,"viability, T/C","second compound 3.16 µM, first compound 0.316 µM",50.3%
same,"viability, T/C","second compound 3.16 µM, first compound 1 µM",9.3%
same,"viability, T/C","second compound 3.16 µM, first compound 3.16 µM",10.3%
same,"viability, T/C","second compound 3.16 µM, first compound 10 µM",5.46%
same,"viability, T/C","second compound 10 µM, first compound 0.0316 µM",41%
same,"viability, T/C","second compound 10 µM, first compound 0.1 µM",48.8%
same,"viability, T/C","second compound 10 µM, first compound 0.316 µM",47.9%
same,"viability, T/C","second compound 10 µM, first compound 1 µM",6.06%
same,"viability, T/C","second compound 10 µM, first compound 3.16 µM",11.8%
same,"viability, T/C","second compound 10 µM, first compound 10 µM",6.29%
COC1C=CCC(C)C(C)S(=O)(=O)NC(=O)c2ccc3c(c2)N(CC2CCC21)CC1(CCCc2cc(Cl)ccc21)CO3 (stereo not drawn),"viability, T/C",compound 0.0316 µM,101% and 91.8%
same,"viability, T/C",compound 0.1 µM,107% and 82.2%
same,"viability, T/C",compound 0.316 µM,73% and 64.9%
same,"viability, T/C",compound 1 µM,57.9% and 45.1%
same,"viability, T/C",compound 3.16 µM,42.4% and 42.2%
same,"viability, T/C",compound 10 µM,36.5% and 33.7%
same,IC50,curve of compound,1490 nM and 826 nM
COc1ccc([C@@H](O)c2cc(-c3ncnc4cc(N5CCOCC5)ccc34)c(F)cc2Cl)nn1,"viability, T/C",compound 0.0316 µM,79.4% and 79.8%
same,"viability, T/C",compound 0.1 µM,92.1% and 72.9%
same,"viability, T/C",compound 0.316 µM,69.5% and 75.5%
same,"viability, T/C",compound 1 µM,51% and 57.1%
same,"viability, T/C",compound 3.16 µM,41.2% and 39.4%
same,"viability, T/C",compound 10 µM,21.8% and 31.3%
same,IC50,curve of compound,1350 nM and 1610 nM
Cn1ncnc1[C@H]1c2n[nH]c(=O)c3cc(F)cc(c23)N[C@@H]1c1ccc(F)cc1,"viability, T/C",compound 0.000316 µM,90.7% and 78.8%
same,"viability, T/C",compound 0.001 µM,96.5% and 103%
same,"viability, T/C",compound 0.00316 µM,97.3% and 61.4%
same,"viability, T/C",compound 0.01 µM,89.6% and 93.2%
same,"viability, T/C",compound 0.0316 µM,67.8% and 81.5%
same,"viability, T/C",compound 0.1 µM,69.2% and 63.6%
same,IC50,curve of compound,> 100 nM
